Patent publication US20160354300A1, “Low Viscosity Hair Care Composition” (The Procter & Gamble Company, priority 2015, published 2016)
Structures can show the parent of a compound that is named as a salt.

Experiments:
[1] = Visual cloudiness of surfactant formulation with added agent after 20:1 dilution with water; assay type: physicochemical; design: key: Samples that appeared cloudy (turbid) within less than a day were noted as cloudy (“Yes”); Samples that did not appear cloudy (turbid) within less than a day were noted as not cloudy (“No”); settings: 0.5 g formula, 10 ml deionized water; for Cloudy at 1:20 dilution at 2%, 4%, and/or 6%: Table 3, visual, within less than a day; for Added at 2%: cloudy at 20:1 dilution: agent at 2%; for Added at 4%: cloudy at 20:1 dilution: agent at 4%; for Added at 6%: cloudy at 20:1 dilution: agent at 6%; for Added at 8%: cloudy at 20:1 dilution: agent at 8%
Description: Now referring to Tables 3 and 4, the following surfactant formulations were made by mixing 1.6% perfume, 24% sodium undecyl sulfate (CAS#1072-24-8) active, 6% lauramidopropyl betaine (CAS#4292-10-8) active, and 60.4% deionized water which leaves 8% unfilled for the addition of the listed agents (the balance being filled in by distilled water). The agents were added at a percentage of 2%, 4%, 6%, and 8% into the above surfactant formulation. The resulting formulations were vortexed and put into oven at 60° C. overnight to form homogeneous solution. For all formulations, the surfactant, water and additives, including the added agents, were expected to be in a single phase.
The resulting formulations were weighed out in a scintillation vial combined with 10 ml of water to achieve a representative dilution during use: 0.5 g formula, 10 ml deionized water for 20:1 dilution. After the combination of the ingredients, the vial was vigorously shaken by hand and the samples were visually inspected by looking at the solution against a dark background. Samples that appeared cloudy (turbid) within less than a day were noted as cloudy (“Yes”). […] Samples that appeared cloudy at the 20:1 dilution for any of the 2%, 4% or 6% concentration of oil may be most desirable by requiring a limited amount of the agent to be added, limiting cost and trade-offs associated with higher levels.
The appearance of a cloudy formulation at 1:20 dilution at 2%, 4%, and/or 6% can signal improved deposition of surfactant soluble active agents during consumer use.

[2] = Kinematic viscosity at 40 C of surfactant base formulation with added agent (Cannon viscometer); assay type: physicochemical; settings: for Lowest viscosity achieved (cSt): Table 1, base formulation 24% sodium undecyl sulfate, 6% lauramidopropyl betaine, 1.6% perfume, agent at 2%, 4%, 6%, 8%, 40° C.; for Kinematic viscosity at 40 C. [cSt], 2% oil: agent added at 2% to base formulation; for Kinematic viscosity at 40 C. [cSt], 4% oil: agent added at 4% to base formulation; for Kinematic viscosity at 40 C. [cSt], 6% oil: agent added at 6% to base formulation; for Kinematic viscosity at 40 C. [cSt], 8% oil: agent added at 8% to base formulation
Excerpt: Referring to Tables 1 and 2, the base formulations were made by mixing 1.6% perfume, 24% sodium undecyl sulfate (CAS#1072-24-8) active, 6% lauramidopropyl betaine (CAS#4292-10-8) active and 60.4% deionized water which leaves 8% unfilled for the addition of a viscosity reducing agent (the balance being filled in by distilled water). For all compositions, the surfactant, water and additives including viscosity reducing agents were expected to be in a single phase.
The agents from Tables 1 and 2 were added to the base formulation at a percentage of 2%, 4%, 6%, and 8% into the above surfactant solution. The subsequent formulations were vortexed and put into oven at 60° C. overnight to form homogeneous solution. The viscosities of the formulations were measured with calibrated viscometers (Size 200/350/450) from Cannon Instrument Company (2139 High Tech Road, State College, Pa., USA, 16803).
After the equilibration, the formulations were drawn to reach the starting mark with a rubber suction bulb and the flow time between the starting mark and end mark was recorded for calculation. Each formulation was measured three times to calculate average and standard deviation. Between samples, viscometer was cleaned with water and acetone to rinse off residual.
Viscosity values were calculated based on the equation:
Viscosity (mm^2/s·(cSt))=Time (s)*Constant (mm^2/s^2·(cSt/s))
The time in the above equation is the flow time recorded in the experiment and the constant numbers for each calibrated viscometer were obtained from the manuals. […]
The viscosities of the formulations are measured with calibrated viscometers (Size 200/350/450) from Cannon Instrument Company (2139 High Tech Road, State College, Pa., USA, 16803). Prior to the measurement, the formulations are equilibrated in the viscometer reservoir for 30 min at 40° C. in water bath to ensure a homogeneous temperature is reached in the system. […]

Row | Structure (SMILES) | Cloudy at 1:20 dilution at 2%, 4%, and/or 6% [1] | Added at 2%: cloudy at 20:1 dilution [1] | Added at 4%: cloudy at 20:1 dilution [1] | Added at 6%: cloudy at 20:1 dilution [1] | Added at 8%: cloudy at 20:1 dilution [1] | Lowest viscosity achieved (cSt) [2] | Kinematic viscosity at 40 C. [cSt], 2% oil [2] | Kinematic viscosity at 40 C. [cSt], 4% oil [2] | Kinematic viscosity at 40 C. [cSt], 6% oil [2] | Kinematic viscosity at 40 C. [cSt], 8% oil [2]
1 | C=CC(C)(CCC=C(C)C)OC(=O)C(C)C (stereo not drawn) [Linalyl Iso Butyrate] | Yes | No | No | Yes | Yes | 38 cSt | 223.4 cSt | 73.0 cSt | 37.7 cSt | 39.9 cSt
2 | CC1=CCC(C(C)C)=CC1 [gamma-Terpinene] | Yes | No | No | Yes | Yes | 32 cSt | 238.0 cSt | 65.0 cSt | 31.7 cSt | –
3 | CCCCOC(=O)c1ccccc1O [Butyl Salicylate] | No | No | – | – | – | 368 cSt | 367.9 cSt | – | – | –
4 | CC(C)CCOC(=O)c1ccccc1O [Isoamyl Salicylate] | Yes | No | Yes | – | – | 193 cSt | 460.3 cSt | 193.2 cSt | – | –
5 | CCCCCCCCCCCCCC(=O)OC(C)C [Iso Propyl Myristate] | Yes | No | No | Yes | Yes | 30 cSt | 234.2 cSt | 53.7 cSt | 30.4 cSt | 45.0 cSt
6 | CCCCCC1(C)CCC(C)(C)C1=O (stereo not drawn) [Veloutone] | Yes | No | No | Yes | Yes | 47 cSt | 260.2 cSt | 129.1 cSt | 56.3 cSt | 47.3 cSt
7 | CC(C)CC=C(C=O)C(C)C [2-Isopropyl-5-methyl-2-hexenal] | No | No | No | – | – | 332 cSt | 332.3 cSt | – | – | –
8 | CC(CC=O)CCCC(C)(C)O (stereo not drawn) [Hydroxycitronellal] | – | – | – | – | – | 34 cSt | 310.8 cSt | 145.4 cSt | 65.9 cSt | 34.1 cSt
9 | CC(C)COC(=O)c1ccccc1O [Iso Butyl Salicylate] | No | No | No | – | – | 409 cSt | 408.7 cSt | – | – | –
10 | CC12CCC(CC1=O)C2(C)C (stereo not drawn) [Camphor Gum] | – | – | – | – | – | 127 cSt | 365.8 cSt | 127.2 cSt | – | –
11 | CCCCCC(=O)OCC(C)C [Isobutyl Hexanoate] | No | No | No | No | Yes | 109 cSt | 390.0 cSt | 177.9 cSt | 140.9 cSt | 109.4 cSt
12 | CC(=O)OCCC(C)CCC=C(C)C (stereo not drawn) [Citronellyl Acetate] | No | No | – | – | – | 363 cSt | 362.7 cSt | – | – | –
13 | COC(C)(C)C1CC=C(C)CC1 (stereo not drawn) [Orange Flower Ether] | – | – | – | – | – | 419 cSt | 552.2 cSt | 418.8 cSt | – | –
14 | CCC(CC(C)CC)=NO (stereo not drawn) [5-Methyl-3-Heptanone Oxime] | – | – | – | – | – | 246 cSt | 246.3 cSt | – | – | –
15 | CCC(=O)O[C@@H]1C[C@H]2CC[C@]1(C)C2(C)C (racemic) [Iso Bornyl Propionate] | – | – | – | – | – | 463 cSt | 463.1 cSt | – | – | –
16 | CCCCCCCC(OC)OC [1,1-Dimethoxyoctane] | – | – | – | – | – | 308 cSt | 500.7 cSt | 308.1 cSt | – | –
17 | CC(=O)CCc1ccc(O)cc1 [Raspberry Ketone] | – | – | – | – | – | 33 cSt | 151.9 cSt | 107.4 cSt | 54.0 cSt | 33.0 cSt
18 | C=C(C)[C@H]1CC=C(C)CC1 [Limonene] | – | – | – | – | – | 86 cSt | 366.5 cSt | 166.8 cSt | 97.5 cSt | 86.4 cSt
19 | CCOC(=O)CC(O)(CC(=O)OCC)C(=O)OCC [Triethyl Citrate] | – | – | – | – | – | 41 cSt | 269.4 cSt | 136.6 cSt | 66.6 cSt | 40.5 cSt
20 | CCO [Ethanol] | – | – | – | – | – | 29 cSt | 205.6 cSt | 111.0 cSt | 50.8 cSt | 29.2 cSt
